{"source": "patent US9061060B2", "about": "“Deuterated benzylbenzene derivatives and methods of use” (Theracos Inc., priority 2008, dated 2015)", "key": {"human SGLT1": {"target": "T1, human SGLT1 (Homo sapiens, UniProt P13866)", "T1 sequence (P13866 1-664)": "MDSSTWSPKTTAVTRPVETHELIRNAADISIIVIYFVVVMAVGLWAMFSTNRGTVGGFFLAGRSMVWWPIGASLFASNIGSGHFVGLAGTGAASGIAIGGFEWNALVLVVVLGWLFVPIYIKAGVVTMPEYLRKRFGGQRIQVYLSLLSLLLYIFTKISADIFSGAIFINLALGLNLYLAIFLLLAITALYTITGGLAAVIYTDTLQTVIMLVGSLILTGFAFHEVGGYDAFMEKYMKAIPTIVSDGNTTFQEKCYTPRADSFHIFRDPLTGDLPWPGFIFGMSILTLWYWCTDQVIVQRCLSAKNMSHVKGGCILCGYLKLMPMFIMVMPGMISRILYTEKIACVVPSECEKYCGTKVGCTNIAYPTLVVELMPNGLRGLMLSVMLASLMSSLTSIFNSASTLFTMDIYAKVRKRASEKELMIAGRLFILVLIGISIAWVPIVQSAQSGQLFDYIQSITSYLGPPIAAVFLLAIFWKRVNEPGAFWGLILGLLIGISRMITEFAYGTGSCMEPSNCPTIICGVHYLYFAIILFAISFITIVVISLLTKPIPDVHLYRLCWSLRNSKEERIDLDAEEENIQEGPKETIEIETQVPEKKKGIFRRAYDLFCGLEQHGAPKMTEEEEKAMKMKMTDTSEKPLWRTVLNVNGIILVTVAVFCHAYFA", "details": "read-out: SGLT1 IC50; COS-7 cells expressing human SGLT1; 25% human serum; 2 hours", "quoted_text": "Full-length human SGLT1 cDNA in the pDream2.1 expression vector was obtained from GenScript Corporation and propagated in Escherichia coli strain DH5α using Luria-Bertani (LB) medium containing ampicillin. Plasmid DNA was isolated using the QIAGEN Plasmid Midi Kit (QIAGEN Inc.). […] Transfected cells were stored in DMEM containing 10% dimethyl sulfoxide (DMSO) at −80° C.\nCells expressing SGLT1 or SGLT2 were seeded on 96-well ScintiPlate scintillating plates (PerkinElmer, Inc.) in DMEM containing 10% FBS (1×10^5 cells per well in 1001 medium) incubated at 37° C. under 5% CO2 for 48 hours prior to the assay. […] Cells were washed twice with 150 μl of wash buffer (137 mM N-methylglucamine, 10 mM Tris/Hepes, pH 7.2) and methyl-α-D-[U-^14C]glucopyranoside uptake was quantified using a TopCount scintillation counter (PerkinElmer, Inc.). Sodium-dependent glucopyranoside uptake was measured by subtracting the values obtained with sodium-free buffer from those obtained using sodium buffer (average of triplicate determinations). The IC50 for SGLT2 and SGLT1 were determined, and the selectivity for SGLT2 inhibition was calculated by dividing the SGLT1 IC50 by the SGLT2 IC50."}, "CYP3A4": {"target": "T2, CYP3A4 (Homo sapiens, UniProt P08684)", "T2 construct": "purchased Promega", "T2 sequence (P08684 whole entry)": "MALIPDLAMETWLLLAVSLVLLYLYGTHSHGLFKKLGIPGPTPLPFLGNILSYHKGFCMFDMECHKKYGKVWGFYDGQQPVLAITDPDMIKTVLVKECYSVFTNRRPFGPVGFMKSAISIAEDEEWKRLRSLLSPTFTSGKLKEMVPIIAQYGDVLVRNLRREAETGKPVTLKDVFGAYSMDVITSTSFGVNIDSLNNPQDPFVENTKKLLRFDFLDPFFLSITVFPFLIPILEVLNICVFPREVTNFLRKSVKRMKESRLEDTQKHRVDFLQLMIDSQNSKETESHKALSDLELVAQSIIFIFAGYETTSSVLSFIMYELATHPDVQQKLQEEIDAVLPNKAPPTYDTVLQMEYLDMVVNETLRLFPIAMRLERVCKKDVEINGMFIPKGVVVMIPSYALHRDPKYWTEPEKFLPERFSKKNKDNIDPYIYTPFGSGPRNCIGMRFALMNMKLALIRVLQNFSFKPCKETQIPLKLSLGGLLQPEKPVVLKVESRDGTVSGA", "test": "P450-Glo CYP screening kit, CYP3A4 inhibition", "type": "in vitro ADME", "details": "luminescence, read-out: IC50 3A4", "description": "P450-Glo™ CYP Screening Kits for CYP1A2, CYP3A4 and CYP2C19 were purchased from Promega. […] Luminescence was quantified using a Victor 3 spectrophotometer (PerkinElmer)."}, "[1]": {"test": "Metabolism in SD rats: distribution of metabolites in urine", "type": "in vivo", "details": "male SD rats, 50 mg/kg oral, five consecutive days, HPLC", "procedure": "Each test compound was dissolved in 30% PEG400 and administered orally to male SD rats by gavages at the dose level of 50 mg/kg (when using co-crystals, the weight calculation was based on free drug) for five consecutive days. Control rats were given 30% PEG400 only. All rats were housed in metabolic cages individually. Food and water were supplied ad libitum. Clinical observations (with attention to diarrhea symptoms) were performed twice daily. Food and water consumption were determined daily. Urine was collected pre-determined intervals: pre-dose, 0-4 hours, 4-8 hours, and 8-24 hours post-dose. Metabolites were analyzed and identified by LC/MS. The structures of the metabolites were confirmed by re-synthesis or isolation from the urine by preparative HPLC and NMR analysis. On day 6, all animals were sacrificed and gross necropsy was performed. The urine from two rats for each test compound was collected and pooled. The samples were diluted (1 mL urine in 4 mL of methanol) and analyzed by LC-MS: Waters 2695 Separations Module equipped with a Waters 2996 Photodiode Array Detector and a Waters Micromass ZQ Detector; Waters XTerra C18 3.5 μm, 20 mm×2.1 mm column, 1.0 mL/min, detection at 190-400 nm; 1.7 min gradient 10-50% A, followed by 1.8 min gradient 50-95% A, hold 1 min at 95% A; solvent A: 100% acetonitrile+0.045% formic acid; solvent B: Milli-Q water+0.1% formic acid. The urine samples were analyzed from 0-4 hours, 4-8 hours, 8-24 hours and 0-24 hours after administration. The ratio of metabolites was highly consistent within each time for each rat. The metabolites were identified by mass then re-synthesized to confirm their identity and the relative distribution was assayed using HPLC. […] See also FIGS. 1, 2A-2C, 3A-3D, and 4A-4C."}, "human SGLT2": {"target": "T3, human SGLT2 (Homo sapiens, UniProt P31639)", "T3 construct": "A full-length cDNA clone expressing human SGLT2 (GenScript Corporation)", "T3 sequence (P31639 1-672)": "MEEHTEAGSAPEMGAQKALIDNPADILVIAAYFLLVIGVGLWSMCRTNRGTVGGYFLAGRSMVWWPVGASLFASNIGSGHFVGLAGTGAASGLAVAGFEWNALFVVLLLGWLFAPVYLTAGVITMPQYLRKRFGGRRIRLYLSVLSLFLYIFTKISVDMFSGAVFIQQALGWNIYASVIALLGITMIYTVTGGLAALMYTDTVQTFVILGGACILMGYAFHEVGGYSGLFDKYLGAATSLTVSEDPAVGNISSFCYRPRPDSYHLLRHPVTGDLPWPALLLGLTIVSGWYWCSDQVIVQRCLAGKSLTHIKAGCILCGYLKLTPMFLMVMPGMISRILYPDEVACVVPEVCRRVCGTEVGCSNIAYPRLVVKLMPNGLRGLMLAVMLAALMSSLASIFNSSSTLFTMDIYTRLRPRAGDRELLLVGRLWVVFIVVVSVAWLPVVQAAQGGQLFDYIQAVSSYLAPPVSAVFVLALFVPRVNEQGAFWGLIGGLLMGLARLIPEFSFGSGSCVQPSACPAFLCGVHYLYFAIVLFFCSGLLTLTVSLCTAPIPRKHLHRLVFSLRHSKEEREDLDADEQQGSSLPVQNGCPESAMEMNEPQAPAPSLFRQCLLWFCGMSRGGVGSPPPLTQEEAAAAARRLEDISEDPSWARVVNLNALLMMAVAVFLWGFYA", "test": "Methyl-α-D-[U-14C]glucopyranoside uptake assay, cells stably expressing human SGLT2", "type": "cell-based", "details": "for IC50: HEK293.ETN cells expressing human SGLT2, 25% human serum, 1.5 hours; for Selectivity: SGLT1 IC50 divided by SGLT2 IC50", "description": "A full-length cDNA clone expressing human SGLT2 (GenScript Corporation) was subcloned into Hind III and Not I sites of the pEAK15 expression vector. Clones harboring the cDNA inserts were identified by restriction analysis.\nA plasmid containing human SGLT2 was linearized with Nsi I and purified by agarose gel electrophoresis. Using Lipofectamine 2000 Transfection Reagent (Invitrogen Corporation), DNA was transfected into HEK293.ETN cells and cultured in Dulbecco's Modified Eagle Medium (DMEM) containing 10% fetal bovine serum (FBS) at 37° C. under 5% CO2 for 24 hours. Transfectants were selected in the same growth medium supplemented with puromycin (Invitrogen Corporation) for two weeks. Puromycin-resistant cells were recovered and seeded on a fresh 96-well plate (single cell per well) and cultured in the presence of puromycin until cells became confluent.\nCells expressing SGLT1 or SGLT2 were seeded on 96-well ScintiPlate scintillating plates (PerkinElmer, Inc.) in DMEM containing 10% FBS (1×10^5 cells per well in […] medium) incubated at 37° C. under 5% CO2 for 48 hours prior to the assay."}}, "data": [{"smiles": "COc1ccc(Cc2cc([C@@H]3O[C@H](CO)[C@@H](O)[C@H](O)[C@H]3O)ccc2Cl)cc1", "note": "[Ref B, (2S,3R,4R,5S,6R)-2-(4-chloro-3-(4-methoxybenzyl)phenyl)-6-(hydroxymethyl)tetrahydro-2H-pyran-3,4,5-triol, reference compound]", "values": [{"measurement": "IC50", "setting": "human SGLT1", "value": 0.54, "unit": "µM"}, {"measurement": "IC50", "setting": "CYP3A4", "value": 250, "unit": "µM"}, {"measurement": "Distribution of Metabolites in Urine (% of total), Peak 1 (Parent)", "setting": "[1]", "value": 72, "unit": "%"}, {"measurement": "IC50", "setting": "human SGLT2", "value": 0.0019, "unit": "µM"}, {"measurement": "Selectivity", "setting": "human SGLT2", "value": 284}]}, {"smiles": "[2H]C([2H])([2H])Oc1ccc(C([2H])([2H])c2cc([C@@H]3O[C@H](CO)[C@@H](O)[C@H](O)[C@H]3O)ccc2Cl)cc1", "note": "[compound 19, (2S,3R,4R,5S,6R)-2-(4-chloro-3-((4-(methoxy-d3)phenyl)methyl-d2)phenyl)-6-(hydroxymethyl)tetrahydro-2H-pyran-3,4,5-triol]", "values": [{"measurement": "IC50", "setting": "human SGLT1", "value": 0.82, "unit": "µM"}, {"measurement": "IC50", "setting": "CYP3A4", "value": "> 1000", "unit": "µM"}, {"measurement": "Distribution of Metabolites in Urine (% of total), Peak 1 (Parent)", "setting": "[1]", "value": 87, "unit": "%"}, {"measurement": "IC50", "setting": "human SGLT2", "value": 0.0008, "unit": "µM"}, {"measurement": "Selectivity", "setting": "human SGLT2", "value": 1025}]}]}
